Data on 1 compound can be found in article PMC5218480 (PLoS ONE, 2017).

This test deals with MV-4-11 cells. Description: Gene expression microarray analysis (Affymetrix PrimeView) and GSEA. Type of test: cell-based, human. Conditions: MV-4-11 cells, 48 hours. Set-up: RFU PODN (11730768_x_at) / Fold change /veh PODN (11730768_x_at) / RFU LINC00158 (11744669_a_at) / Fold change /veh LINC00158 (11744669_a_at) / RFU DUSP10 (11751237_a_at) / Fold change /veh DUSP10 (11751237_a_at) / RFU ID3 (11757404_x_at) / Fold change /veh ID3 (11757404_x_at) / RFU PLEKHG5 (11737974_s_at) / Fold change /veh PLEKHG5 (11737974_s_at) / RFU LRRC4B (11730491_at) / Fold change /veh LRRC4B (11730491_at) / RFU GIMAP4 (11747438_a_at) / Fold change /veh GIMAP4 (11747438_a_at) / RFU KRT8 (11758183_x_at) / Fold change /veh KRT8 (11758183_x_at) / RFU CNN1 (11734310_a_at) / Fold change /veh CNN1 (11734310_a_at) / RFU VPS37D (11726825_at) / Fold change /veh VPS37D (11726825_at) / RFU C10orf10 (11716522_x_at) / Fold change /veh C10orf10 (11716522_x_at) / RFU KIR2DL2 /// KIR2DL4 /// KIR2DL5A /// KIR2DL5B /// KIR2DS1 /// KIR2DS2 /// KIR2DS3 /// KIR2DS4 /// KIR3DL3 /// KIR3DL3 /// KIR3DS1 (11738374_at) / Fold change /veh KIR2DL2 /// KIR2DL4 /// KIR2DL5A /// KIR2DL5B /// KIR2DS1 /// KIR2DS2 /// KIR2DS3 /// KIR2DS4 /// KIR3DL3 /// KIR3DL3 /// KIR3DS1 (11738374_at) / RFU C1QL1 (11718748_at) / Fold change /veh C1QL1 (11718748_at) / RFU TMPRSS4 (11747572_a_at) / Fold change /veh TMPRSS4 (11747572_a_at) / RFU HAMP (11756126_x_at) / Fold change /veh HAMP (11756126_x_at) / RFU RNFT2 (11725882_a_at) / Fold change /veh RNFT2 (11725882_a_at) / RFU NR4A2 (11747474_a_at) / Fold change /veh NR4A2 (11747474_a_at) / RFU ABCC12 (11746883_a_at) / Fold change /veh ABCC12 (11746883_a_at) / RFU TMEM136 (11760407_x_at) / Fold change /veh TMEM136 (11760407_x_at) / RFU CLDN22 /// WWC2 (11732394_at) / Fold change /veh CLDN22 /// WWC2 (11732394_at) / RFU HLA-DPB1 (11760878_x_at) / Fold change /veh HLA-DPB1 (11760878_x_at) / RFU SPINT1 (11716480_a_at) / Fold change /veh SPINT1 (11716480_a_at) / RFU GAP43 (11754022_s_at) / Fold change /veh GAP43 (11754022_s_at) / RFU A4GNT (11735810_at) / Fold change /veh A4GNT (11735810_at) / RFU PRB3 (11715151_x_at) / Fold change /veh PRB3 (11715151_x_at) / RFU TUBB4B (11761932_at) / Fold change /veh TUBB4B (11761932_at) / RFU CAPN14 (11732068_a_at) / Fold change /veh CAPN14 (11732068_a_at) / RFU TMCC2 (11721928_a_at) / Fold change /veh TMCC2 (11721928_a_at) / RFU IRGQ (11745062_a_at) / Fold change /veh IRGQ (11745062_a_at) / RFU FAM174B (11720279_a_at) / Fold change /veh FAM174B (11720279_a_at) / RFU TMPRSS4 (11748680_a_at) / Fold change /veh TMPRSS4 (11748680_a_at) / RFU FAM212B (11763350_a_at) / Fold change /veh FAM212B (11763350_a_at) / RFU PLEKHG5 (11743358_a_at) / Fold change /veh PLEKHG5 (11743358_a_at) / RFU ZSCAN30 (11745921_a_at) / Fold change /veh ZSCAN30 (11745921_a_at) / RFU CMKLR1 (11741424_a_at) / Fold change /veh CMKLR1 (11741424_a_at) / RFU LOC101060620 /// MAPK8IP1 (11723275_at) / Fold change /veh LOC101060620 /// MAPK8IP1 (11723275_at) / RFU SPTSSB (11747773_x_at) / Fold change /veh SPTSSB (11747773_x_at) / RFU PRSS12 (11739890_at) / Fold change /veh PRSS12 (11739890_at) / RFU BIN1 (11741810_x_at) / Fold change /veh BIN1 (11741810_x_at) / RFU WNT11 (11732464_a_at) / Fold change /veh WNT11 (11732464_a_at) / RFU C10orf10 (11716521_a_at) / Fold change /veh C10orf10 (11716521_a_at) / RFU C5orf56 (11738089_at) / Fold change /veh C5orf56 (11738089_at) / RFU CYB561 (11721691_x_at) / Fold change /veh CYB561 (11721691_x_at) / RFU ANKRD19P (11752326_a_at) / Fold change /veh ANKRD19P (11752326_a_at) / RFU OR2T12 /// OR2T33 /// OR2T8 (11738714_s_at) / Fold change /veh OR2T12 /// OR2T33 /// OR2T8 (11738714_s_at) / RFU VCAN (11748164_a_at) / Fold change /veh VCAN (11748164_a_at) / RFU JSRP1 (11732532_at) / Fold change /veh JSRP1 (11732532_at) / RFU KRTAP10-11 (11738290_x_at) / Fold change /veh KRTAP10-11 (11738290_x_at) / RFU MYO3A (11730013_a_at) / Fold change /veh MYO3A (11730013_a_at) / RFU EBF3 (11725865_a_at) / Fold change /veh EBF3 (11725865_a_at) / RFU CAMK2N1 (11719241_x_at) / Fold change /veh CAMK2N1 (11719241_x_at) / RFU C5orf56 (11738088_a_at) / Fold change /veh C5orf56 (11738088_a_at) / RFU OLFML3 (11715873_a_at) / Fold change /veh OLFML3 (11715873_a_at) / RFU LOC100653217 /// NTM (11731650_a_at) / Fold change /veh LOC100653217 /// NTM (11731650_a_at) / RFU MAPK11 (11762145_a_at) / Fold change /veh MAPK11 (11762145_a_at) / RFU FIZ1 (11724087_x_at) / Fold change /veh FIZ1 (11724087_x_at) / RFU OASL (11726364_x_at) / Fold change /veh OASL (11726364_x_at) / RFU SOX15 (11748057_x_at) / Fold change /veh SOX15 (11748057_x_at) / RFU CD79A (11719716_a_at) / Fold change /veh CD79A (11719716_a_at) / RFU HIST1H1D (11736915_at) / Fold change /veh HIST1H1D (11736915_at) / RFU CASKIN2 (11723855_a_at) / Fold change /veh CASKIN2 (11723855_a_at) / RFU LOC730098 (11760151_x_at) / Fold change /veh LOC730098 (11760151_x_at) / RFU OR4N2 (11742367_at) / Fold change /veh OR4N2 (11742367_at) / RFU PRRT2 (11749266_a_at) / Fold change /veh PRRT2 (11749266_a_at) / RFU SNX32 (11753110_a_at) / Fold change /veh SNX32 (11753110_a_at) / RFU CDHR5 (11726645_a_at) / Fold change /veh CDHR5 (11726645_a_at) / RFU RCAN1 (11760418_a_at) / Fold change /veh RCAN1 (11760418_a_at) / RFU FAM167A (11723789_a_at) / Fold change /veh FAM167A (11723789_a_at) / RFU FAM26E (11764081_at) / Fold change /veh FAM26E (11764081_at) / RFU ISYNA1 (11749810_s_at) / Fold change /veh ISYNA1 (11749810_s_at) / RFU ACY1 (11761880_at) / Fold change /veh ACY1 (11761880_at) / RFU 11764098_at / Fold change /veh 11764098_at / RFU SAMD14 (11745864_x_at) / Fold change /veh SAMD14 (11745864_x_at) / RFU NPB (11741838_a_at) / Fold change /veh NPB (11741838_a_at) / RFU TMPRSS6 (11731388_a_at) / Fold change /veh TMPRSS6 (11731388_a_at) / RFU KRTAP10-2 (11738614_at) / Fold change /veh KRTAP10-2 (11738614_at) / RFU ARHGAP8 /// PRR5-ARHGAP8 (11727945_x_at) / Fold change /veh ARHGAP8 /// PRR5-ARHGAP8 (11727945_x_at) / RFU KRTAP5-7 /// NADSYN1 (11734609_at) / Fold change /veh KRTAP5-7 /// NADSYN1 (11734609_at) / RFU RASL12 (11751679_a_at) / Fold change /veh RASL12 (11751679_a_at) / RFU CDKN2B (11736163_a_at) / Fold change /veh CDKN2B (11736163_a_at) / RFU PRF1 (11729649_at) / Fold change /veh PRF1 (11729649_at) / RFU, ZNF638 /// ZNF638-IT1 / Fold change vs veh, ZNF638 /// ZNF638-IT1 / RFU, PANK3 / Fold change vs veh, PANK3 / RFU, SH3YL1 / Fold change vs veh, SH3YL1 / RFU, ZEB2 / Fold change vs veh, ZEB2 / RFU, NRIP1 / Fold change vs veh, NRIP1 / RFU, PTTG1IP / Fold change vs veh, PTTG1IP / RFU, CAPN2 / Fold change vs veh, CAPN2 / RFU, MED14 / Fold change vs veh, MED14 / RFU, SNORA58 / Fold change vs veh, SNORA58 / RFU, C1orf63 / Fold change vs veh, C1orf63 / RFU, LRRFIP1 / Fold change vs veh, LRRFIP1 / RFU, NDUFAF7 / Fold change vs veh, NDUFAF7 / RFU, SLC12A2 / Fold change vs veh, SLC12A2 / RFU, IBTK / Fold change vs veh, IBTK / RFU, ESF1 / Fold change vs veh, ESF1 / Fold change vs veh, TMEM50B / RFU, TAOK1 / Fold change vs veh, TAOK1 / RFU, ACBD3 / Fold change vs veh, ACBD3 / RFU, TMA16 / Fold change vs veh, TMA16 / RFU, RWDD3 / Fold change vs veh, RWDD3 / RFU, BCAT1 / Fold change vs veh, BCAT1 / RFU, EDEM3 / Fold change vs veh, EDEM3 / RFU, TMEM33 / Fold change vs veh, TMEM33 / RFU, WDR75 / Fold change vs veh, WDR75 / RFU, AHCTF1 / Fold change vs veh, AHCTF1 / RFU, TFRC / Fold change vs veh, TFRC / RFU, ZDHHC17 / Fold change vs veh, ZDHHC17 / RFU, NOM1 / Fold change vs veh, NOM1 / RFU, ARL8B / Fold change vs veh, ARL8B / RFU, ZBTB11 / Fold change vs veh, ZBTB11 / RFU, TAMM41 / Fold change vs veh, TAMM41 / RFU, KIAA1704 /// LOC100996395 / Fold change vs veh, KIAA1704 /// LOC100996395 / RFU, ING1 / Fold change vs veh, ING1 / RFU, TRMT61B / Fold change vs veh, TRMT61B / RFU, FUBP3 / Fold change vs veh, FUBP3 / RFU, TP53 / Fold change vs veh, TP53 / RFU, TNKS2 / Fold change vs veh, TNKS2 / RFU, ZFP14 / Fold change vs veh, ZFP14 / RFU, ACTR2 / Fold change vs veh, ACTR2 / RFU, PPP3R1 / Fold change vs veh, PPP3R1 / RFU, PIK3R1 / Fold change vs veh, PIK3R1 / RFU, HNRNPA1 / Fold change vs veh, HNRNPA1 / RFU, RNF170 / Fold change vs veh, RNF170 / RFU, ZNF28 / Fold change vs veh, ZNF28 / RFU, RNGTT / Fold change vs veh, RNGTT / RFU, OGT / Fold change vs veh, OGT / RFU, BRD1 / Fold change vs veh, BRD1 / RFU, MARS / Fold change vs veh, MARS / RFU, ZNF655 / Fold change vs veh, ZNF655 / RFU, FAHD1 / Fold change vs veh, FAHD1 / RFU, BDP1 / Fold change vs veh, BDP1 / RFU, LRRCC1 / Fold change vs veh, LRRCC1 / RFU, ARID1A / Fold change vs veh, ARID1A / RFU, ZNF146 / Fold change vs veh, ZNF146 / RFU, ZNF330 / Fold change vs veh, ZNF330 / RFU, GPN3 / Fold change vs veh, GPN3 / RFU, C9orf123 / Fold change vs veh, C9orf123 / RFU, N4BP2L2 / Fold change vs veh, N4BP2L2 / RFU, ARFIP1 / Fold change vs veh, ARFIP1 / RFU, FAM179B / Fold change vs veh, FAM179B / RFU, BCL10 / Fold change vs veh, BCL10 / RFU, UHRF1BP1L / Fold change vs veh, UHRF1BP1L / RFU, BET1 / Fold change vs veh, BET1 / RFU, CNOT2 / Fold change vs veh, CNOT2 / RFU, ZNF268 / Fold change vs veh, ZNF268 / Fold change vs veh, ZNF507 / RFU, DGCR2 / Fold change vs veh, DGCR2 / RFU, WDSUB1 / Fold change vs veh, WDSUB1 / Fold change vs veh, HSP90B1 /// MIR3652 / RFU, ADSS / Fold change vs veh, ADSS / RFU, GK / Fold change vs veh, GK / RFU, ZNF148 / Fold change vs veh, ZNF148 / RFU, TAF9 / Fold change vs veh, TAF9 / RFU, SLC1A5 / Fold change vs veh, SLC1A5 / RFU, SLMO2 / Fold change vs veh, SLMO2 / RFU, ABCC4 / Fold change vs veh, ABCC4 / RFU, LOC101060439 /// RAP1B / Fold change vs veh, LOC101060439 /// RAP1B / RFU, RFX7 / Fold change vs veh, RFX7 / RFU, GTPBP10 / Fold change vs veh, GTPBP10 / RFU, CNEP1R1 / Fold change vs veh, CNEP1R1 / RFU, BIVM-ERCC5 /// ERCC5 / Fold change vs veh, BIVM-ERCC5 /// ERCC5 / RFU, ILF3 / Fold change vs veh, ILF3 / RFU 11762660_at / Fold change /veh 11762660_at / RFU VCAN (11757783_s_at) / Fold change /veh VCAN (11757783_s_at) / RFU DDX43 (11728927_at) / Fold change /veh DDX43 (11728927_at) / RFU KRT8 (11758188_x_at) / Fold change /veh KRT8 (11758188_x_at) / RFU NKD1 (11759106_at) / Fold change /veh NKD1 (11759106_at) / RFU SRD5A1 (11742802_a_at) / Fold change /veh SRD5A1 (11742802_a_at) / RFU TPSAB1 /// TPSB2 (11721975_s_at) / Fold change /veh TPSAB1 /// TPSB2 (11721975_s_at) / RFU GSTM3 (11746129_a_at) / Fold change /veh GSTM3 (11746129_a_at) / RFU IL23R (11737362_x_at) / Fold change /veh IL23R (11737362_x_at) / RFU TMEM51 (11727254_a_at) / Fold change /veh TMEM51 (11727254_a_at) / RFU PIWIL2 (11732686_x_at) / Fold change /veh PIWIL2 (11732686_x_at) / RFU ORM1 (11744905_x_at) / Fold change /veh ORM1 (11744905_x_at) / RFU CCDC152 (11743942_at) / Fold change /veh CCDC152 (11743942_at) / RFU ECM1 (11717891_a_at) / Fold change /veh ECM1 (11717891_a_at) / RFU IL23R (11748794_a_at) / Fold change /veh IL23R (11748794_a_at) / RFU TNFAIP8L3 (11732012_x_at) / Fold change /veh TNFAIP8L3 (11732012_x_at) / RFU MBOAT4 (11741988_at) / Fold change /veh MBOAT4 (11741988_at) / RFU 11764193_at / Fold change /veh 11764193_at / RFU TMEM53 (11763286_at) / Fold change /veh TMEM53 (11763286_at) / RFU MAGEB2 (11727129_at) / Fold change /veh MAGEB2 (11727129_at) / RFU TMEM200A (11744735_a_at) / Fold change /veh TMEM200A (11744735_a_at) / RFU CCDC152 (11751479_a_at) / Fold change /veh CCDC152 (11751479_a_at) / RFU FAM211A (11726209_a_at) / Fold change /veh FAM211A (11726209_a_at) / RFU RGS16 (11746705_a_at) / Fold change /veh RGS16 (11746705_a_at) / RFU VCAN (11755009_s_at) / Fold change /veh VCAN (11755009_s_at) / RFU RHOB (11743442_s_at) / Fold change /veh RHOB (11743442_s_at) / RFU RGS16 (11720943_a_at) / Fold change /veh RGS16 (11720943_a_at) / RFU RGS16 (11720944_at) / Fold change /veh RGS16 (11720944_at) / RFU, VPS4B / Fold change vs veh, VPS4B / RFU, CREB1 / Fold change vs veh, CREB1 / RFU, DNAJC13 / Fold change vs veh, DNAJC13 / RFU, GNAQ / Fold change vs veh, GNAQ / RFU, CDK5R1 / Fold change vs veh, CDK5R1 / RFU, ZRANB3 / Fold change vs veh, ZRANB3 / RFU, CUL4A / Fold change vs veh, CUL4A / RFU, CCNY / Fold change vs veh, CCNY / RFU, UFL1 / Fold change vs veh, UFL1 / RFU, COG3 / Fold change vs veh, COG3 / RFU, DIAPH2 / Fold change vs veh, DIAPH2 / RFU, SKA2 / Fold change vs veh, SKA2 / RFU, AFF3 / Fold change vs veh, AFF3 / RFU, LMF1 / Fold change vs veh, LMF1 / RFU, IPO11 / Fold change vs veh, IPO11 / RFU, DFFB / Fold change vs veh, DFFB / RFU, FOXP1 / Fold change vs veh, FOXP1 / RFU, CARD8 / Fold change vs veh, CARD8 / RFU, STRN3 / Fold change vs veh, STRN3 / RFU, ADK / Fold change vs veh, ADK / RFU, RASSF2 / Fold change vs veh, RASSF2 / RFU, WIPF1 / Fold change vs veh, WIPF1 / RFU, LARP1B / Fold change vs veh, LARP1B / RFU, RASA1 / Fold change vs veh, RASA1 / RFU, RB1 / Fold change vs veh, RB1 / RFU, PPFIA1 / Fold change vs veh, PPFIA1 / RFU, MAT2A / Fold change vs veh, MAT2A / RFU, CCT5 / Fold change vs veh, CCT5 / RFU, WDR92 / Fold change vs veh, WDR92 / RFU, CUX1 / Fold change vs veh, CUX1 / RFU, TTC7A / Fold change vs veh, TTC7A / RFU, TMEM135 / Fold change vs veh, TMEM135 / RFU, DEPTOR / Fold change vs veh, DEPTOR / RFU, CPM / Fold change vs veh, CPM / RFU, DNAJB6 / Fold change vs veh, DNAJB6 / RFU, CACNA2D3 / Fold change vs veh, CACNA2D3 / RFU, DTX4 / Fold change vs veh, DTX4 / RFU, TFCP2 / Fold change vs veh, TFCP2 / RFU, GMCL1 /// GMCL1P1 / Fold change vs veh, GMCL1 /// GMCL1P1 / RFU, AEBP2 / Fold change vs veh, AEBP2 / RFU, SNHG1 /// SNORD22 /// SNORD25 /// SNORD26 /// SNORD27 /// SNORD28 /// SNORD29 /// SNORD31 / Fold change vs veh, SNHG1 /// SNORD22 /// SNORD25 /// SNORD26 /// SNORD27 /// SNORD28 /// SNORD29 /// SNORD31 / Fold change (Aza/veh), C12orf56 (ProbeSet 11735607_a_at) / Fold change (ACY-1035/veh), C12orf56 (ProbeSet 11735607_a_at) / Fold change (Aza/veh), FGFR1OP (ProbeSet 11751329_s_at) / Fold change (ACY-1035/veh), FGFR1OP (ProbeSet 11751329_s_at) / Fold change (Aza/veh), VPS36 (ProbeSet 11739960_a_at) / Fold change (ACY-1035/veh), VPS36 (ProbeSet 11739960_a_at) / RFU SYPL1 (11715823_x_at) / Fold change /veh SYPL1 (11715823_x_at) / RFU IGFBP7 (11715501_s_at) / Fold change /veh IGFBP7 (11715501_s_at) / RFU REEP3 (11722064_at) / Fold change /veh REEP3 (11722064_at) / RFU IGLL1 (11728026_x_at) / Fold change /veh IGLL1 (11728026_x_at): dose or concentration left out as unconfirmed.

Each structure is given as a SMILES string.

Turning to `Nc1ncn([C@@H]2O[C@H](CO)[C@@H](O)[C@H]2O)c(=O)n1` [azacitidine], the “Fold change /veh PIWIL2 (11732686_x_at)” value was 1.30.
